How the values were obtained:
Assay in all cases: relative viability (nuclei count vs DMSO), 5 days (fraction); higher = more cells survive
Linifanib + Navitoclax = compound: Cc1ccc(F)c(NC(=O)Nc2ccc(-c3cccc4[nH]nc(N)c34)cc2)c1 [Linifanib] + CC1(C)CCC(c2ccc(Cl)cc2)=C(CN2CCN(c3ccc(C(=O)NS(=O)(=O)c4ccc(N[C@H](CCN5CCOCC5)CSc5ccccc5)c(S(=O)(=O)C(F)(F)F)c4)cc3)CC2)C1 [Navitoclax] (partner 0.5 µM)
Method in brief: (§1)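 Nuclei were stained with Hoechst during a one-step fixation (final 0.05% Triton X-100, 1% formaldehyde, 1 ug/ml Hoechst) carried out 5 days after dosing, then counted on 4× images. The cells, lung cancer lines in 1536-well plates, had been dosed by pin tool the day after seeding with one drug alone or a fixed anchor-drug dose plus five library-drug doses (not always all listed) in √10 steps. Relative viability is the nuclei count in treated wells divided by that in vehicle wells, and each value is the median of duplicate plates.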

Linifanib + OSI-027 = compound: Cc1ccc(F)c(NC(=O)Nc2ccc(-c3cccc4[nH]nc(N)c34)cc2)c1 [Linifanib] + COc1cccc2cc(-c3nc([C@H]4CC[C@H](C(=O)O)CC4)n4ncnc(N)c34)[nH]c12 [OSI-027] (partner 0.5 µM)
Method in brief: as §1

Linifanib + Alpelisib = compound: Cc1ccc(F)c(NC(=O)Nc2ccc(-c3cccc4[nH]nc(N)c34)cc2)c1 [Linifanib] + Cc1nc(NC(=O)N2CCC[C@H]2C(N)=O)sc1-c1ccnc(C(C)(C)C(F)(F)F)c1 [Alpelisib] (partner 2 µM)
Method in brief: as §1

Linifanib + Pemetrexed = compound: Cc1ccc(F)c(NC(=O)Nc2ccc(-c3cccc4[nH]nc(N)c34)cc2)c1 [Linifanib] + Nc1nc2[nH]cc(CCc3ccc(C(=O)N[C@@H](CCC(=O)O)C(=O)O)cc3)c2c(=O)[nH]1 [Pemetrexed] (partner 0.2 µM)
Method in brief: as §1

Linifanib + Olaparib = compound: Cc1ccc(F)c(NC(=O)Nc2ccc(-c3cccc4[nH]nc(N)c34)cc2)c1 [Linifanib] + O=C(c1cc(Cc2n[nH]c(=O)c3ccccc23)ccc1F)N1CCN(C(=O)C2CC2)CC1 [Olaparib] (partner 8 µM)
Method in brief: as §1

Linifanib + Luminespib = compound: Cc1ccc(F)c(NC(=O)Nc2ccc(-c3cccc4[nH]nc(N)c34)cc2)c1 [Linifanib] + CCNC(=O)c1noc(-c2cc(C(C)C)c(O)cc2O)c1-c1ccc(CN2CCOCC2)cc1 [Luminespib] (partner 0.01 µM)
Method in brief: as §1

Cell Line	relative viability (Linifanib + Navitoclax; first compound 0.03162 µM)	relative viability (Linifanib + Navitoclax; first compound 0.1 µM)	relative viability (Linifanib + Navitoclax; first compound 0.3162 µM)	relative viability (Linifanib + OSI-027; first compound 0.03162 µM)	relative viability (Linifanib + OSI-027; first compound 0.1 µM)	relative viability (Linifanib + OSI-027; first compound 0.3162 µM)	relative viability (Linifanib + Alpelisib; first compound 0.03162 µM)	relative viability (Linifanib + Alpelisib; first compound 0.1 µM)	relative viability (Linifanib + Alpelisib; first compound 0.3162 µM)	relative viability (Linifanib + Pemetrexed; first compound 0.03162 µM)	relative viability (Linifanib + Pemetrexed; first compound 0.1 µM)	relative viability (Linifanib + Pemetrexed; first compound 0.3162 µM)	relative viability (Linifanib + Olaparib; first compound 0.03162 µM)	relative viability (Linifanib + Olaparib; first compound 0.1 µM)	relative viability (Linifanib + Olaparib; first compound 0.3162 µM)	relative viability (Linifanib + Luminespib; first compound 0.03162 µM)	relative viability (Linifanib + Luminespib; first compound 0.1 µM)	relative viability (Linifanib + Luminespib; first compound 0.3162 µM)
NCI-H520	1.02	1.1	1.05	0.271	0.313	0.3	0.789	0.801	0.794	0.629	0.696	0.635	0.286	0.32	0.36	0.171	0.204	0.226
COR-L23	1.05	1.04	0.857	0.875	0.786	0.722	0.81	0.957	0.732	0.197	0.19	0.195	0.337	0.384	0.302	0.673	0.892	0.705
LU99A	0.747	0.775	0.743	0.323	0.326	0.338	0.574	0.618	0.539	0.182	0.171	0.202	0.289	0.25	0.287	0.205	0.246	0.268
PC-3 [JPC-3]	0.878	0.826	0.77	0.702	0.771	0.659	1.05	1.02	1.04	1.03	1.05	0.94	1.09	1.14	1.13	0.744	0.731	0.579
NCI-H838	1.19	1.15	1.16	0.393	0.429	0.397	0.903	1.07	0.932	0.225	0.27	0.244	0.753	0.783	0.71	0.373	0.285	0.267
HCC-827	1.02	1.02	1	0.82	0.93	0.716	0.986	1.06	0.922	0.21	0.265	0.235	0.651	0.711	0.654	0.549	0.669	0.622
NCI-H2087	0.959	1.08	0.95	0.643	0.585	0.563	1.28	1.17	1.03	0.661	0.726	0.529	0.618	0.764	0.598	0.175	0.193	0.171
EMC-BAC-2	1.19	1.17	1.15	0.439	0.361	0.375	0.778	0.792	0.683	0.456	0.448	0.472	0.508	0.498	0.487	1.2	1.19	1.14
201T	1.2	1.23	1.21	0.671	0.86	0.745	1	1.06	0.978	0.317	0.309	0.317	0.839	0.825	0.842	1.1	1.06	1.03
RERF-LC-KJ	1.12	1.02	0.994	0.572	0.654	0.616	0.888	1.04	0.75	0.502	0.494	0.484	0.875	1.08	0.892	1.3	1.28	1.25
NCI-H2228	0.994	1.01	0.8	0.647	0.747	0.663	0.821	0.827	0.843	0.325	0.355	0.319	0.58	1.08	0.621	0.15	0.155	0.17
NCI-H2405	0.889	0.88	0.754	0.667	0.66	0.624	0.801	0.847	0.701	1.06	1.11	1.04	0.94	0.835	0.828	0.626	0.933	0.741
SK-LU-1	0.783	0.893	0.791	0.387	0.472	0.337	0.926	0.918	1.05	0.794	1	0.966	0.467	0.558	0.456	0.195	0.181	0.227
CAL-12T	1.18	1.21	1.04	0.761	0.736	0.73	1.27	1.3	1.28	1.2	1.27	1.18	0.642	0.703	0.702	0.438	0.751	0.364
NCI-H1975	1.05	1.22	1.08	0.675	0.753	0.706	0.631	0.715	0.65	0.293	0.317	0.278	0.797	0.881	0.796	0.202	0.139	0.251
NCI-H1755	0.931	1.06	0.949	0.753	0.827	0.669	0.966	0.963	0.833	0.457	0.465	0.474	0.875	0.903	0.835	0.586	0.599	0.447
HCC-44	1.05	0.956	0.942	0.62	0.596	0.478	0.82	0.824	0.793	0.624	0.552	0.613	1.02	0.916	0.952	0.903	0.954	1.05
